# Measurements as given in patent US6531496B1 (Bayer Aktiengesellschaft, priority 1999, dated 2003).
# Test: logP by HPLC (EEC Directive 79/831 Annex V. A8, gradient method)
# Type: physicochemical
# Conditions: HPLC, gradient method, acetonitrile/0.1% aqueous phosphoric acid; Table 1
row,SMILES,logP
1,O=S1(=O)CSC(Oc2ccc(N=Nc3ccccc3)cc2Cl)=N1 [Example 48],3.96
2,O=S1(=O)CSC(Oc2ccccc2CC2=NOCCO2)=N1 [Example 6],1.69
3,COc1ccc(C(=O)c2ccc(OC3=NS(=O)(=O)CS3)cc2)cc1 [Example 66],2.67
4,CCN(CC)C(=O)c1ccc(OC2=NS(=O)(=O)CS2)c(NC)c1 [Example 64],2
5,CON=C(C)c1cc(OC2=NS(=O)(=O)CS2)ccc1OC1=NS(=O)(=O)CS1 [Example 30],2.43
6,COc1ccccc1OC1=NS(=O)(=O)CS1 [Example 136],2.02
7,O=S1(=O)CSC(Oc2ccc(SC(F)(F)F)cc2)=N1 [Example 135],3.07
8,O=S1(=O)CSC(Oc2ccccc2C(F)(F)F)=N1 [Example 131],2.49
9,COc1cc(C=CN2C(=O)c3ccccc3C2=O)ccc1OC1=NS(=O)(=O)CS1 (mixture of isomers) [Example 79],2.63
10,COc1cc(C=Cc2ccccc2)cc(OC2=NS(=O)(=O)CS2)c1 (mixture of isomers) [Example 87],3.62
11,O=S1(=O)CSC(Oc2cccc(OC(F)(F)F)c2)=N1 [Example 134],2.35
12,CON=C(C(=O)NOCc1ccccc1)c1ccccc1OC1=NS(=O)(=O)CS1 [Example 10],2.18
13,O=[N+]([O-])c1ccc(Oc2ccc(OC3=NS(=O)(=O)CS3)cc2)c(Cl)c1 [Example 126],3.33
14,CC(C)n1nc(-c2ccc(OC3=NS(=O)(=O)CS3)cc2)ccc1=O [Example 19],2.15
15,COC=C(C(=O)OC)c1ccccc1OC1=NS(=O)(=O)CS1 [Example 5],2.03
16,O=S1(=O)CSC(Oc2ccc(S(=O)(=O)c3ccc(Cl)cc3)cc2)=N1 [Example 83],2.72
17,O=[N+]([O-])c1ccc(C=Cc2cccc(OC3=NS(=O)(=O)CS3)c2)c([N+](=O)[O-])c1 (mixture of isomers) [Example 81],3.22
18,COC(=O)c1ccc(N=Cc2ccc(OC3=NS(=O)(=O)CS3)cc2)cc1 [Example 68],1.59
19,O=S1(=O)CSC(Oc2cccc(C(=NOCc3ccccc3)c3ccccc3)c2)=N1 [Example 44],4.15
20,Cc1cccc(C)c1OC1=NS(=O)(=O)CS1 [Example 123],2.57
21,O=S1(=O)CSC(Oc2ccc(N=Nc3ccccc3)cc2OC2=NS(=O)(=O)CS2)=N1 [Example 51],3.06
22,O=C(C=Cc1ccccc1)c1ccccc1OC1=NS(=O)(=O)CS1 [Example 130],2.91
23,CC(=Cc1cccc(OC2=NS(=O)(=O)CS2)c1)[N+](=O)[O-] (mixture of isomers) [Example 89],2.46
24,COc1ccc(OC2=NS(=O)(=O)CS2)cc1OC [Example 117],1.82
25,COC(=O)Nc1ccc(C=Cc2cccc(OC3=NS(=O)(=O)CS3)c2)c(NC(=O)OC)c1 [Example 49],2.43

row,SMILES,logP
1,O=S1(=O)CSC(Oc2ccc(OC3=NS(=O)(=O)CS3)cc2)=N1 [Example 88],1.88
2,N#CSCC(=O)c1ccc(OC2=NS(=O)(=O)CS2)cc1 [Example 55],2.01
3,O=S1(=O)CSC(Oc2ccc(C(F)(F)F)cc2)=N1 [Example 132],2.64
4,CSc1ccc(OC2=NS(=O)(=O)CS2)cc1C [Example 54],2.75
5,Cc1nc(Sc2ccc(OC3=NS(=O)(=O)CS3)cc2)sc1C [Example 62],2.91
6,O=S1(=O)CSC(Oc2cccc(C(F)(F)F)c2)=N1 [Example 113],2.62
7,CON=C(C(=O)NCc1ccccc1)c1ccccc1OC1=NS(=O)(=O)CS1 [Example 9],2.13
8,CC(C)(C)c1cc(OC2=NS(=O)(=O)CS2)ccc1O [Example 34],2.66
9,C=CCON=C(C)c1ccc(OC2=NS(=O)(=O)CS2)cc1 [Example 23],3.15
10,CCON=C(C)c1ccc(OC2=NS(=O)(=O)CS2)c(C)c1 [Example 17],3.32
11,COC(=O)c1ccc(OC2=NS(=O)(=O)CS2)cc1C(=O)OC [Example 32],1.93
12,Cc1cc(OC2=NS(=O)(=O)CS2)ccc1Sc1ccc([N+](=O)[O-])cc1C [Example 84],3.94
13,CON=C(C(N)=O)c1ccccc1OC1=NS(=O)(=O)CS1 [Example 11],1.33
14,Cc1cnc(Sc2ccc(OC3=NS(=O)(=O)CS3)cc2)nc1C [Example 63],2.55
15,O=S1(=O)CSC(Oc2cccc(CO)c2)=N1 [Example 46],1.23
16,CSc1nnc(C(C)(C)C)c(=O)n1N=Cc1cccc(OC2=NS(=O)(=O)CS2)c1 [Example 69],3.43
17,CN(C)N=Cc1ccc(OC2=NS(=O)(=O)CS2)cc1 [Example 61],2.16
18,O=S1(=O)CSC(Oc2ccc(-c3nc4ccccc4o3)cc2)=N1 [Example 45],2.88
19,CCCCc1oc2ccccc2c1C(=O)c1ccc(OC2=NS(=O)(=O)CS2)cc1 [Example 71],4.28
20,O=C(C=Cc1ccccc1)c1ccc(OC2=NS(=O)(=O)CS2)cc1 [Example 67],3.06
21,O=S1(=O)CSC(Oc2ccc(-c3nnco3)cc2)=N1 [Example 35],1.36
22,O=[N+]([O-])c1ccc(C=Cc2cccc(OC3=NS(=O)(=O)CS3)c2[N+](=O)[O-])cc1 (mixture of isomers) [Example 85],3.28
23,CCC(=O)c1ccccc1OC1=NS(=O)(=O)CS1 [Example 57],2.04
24,COc1cc(OC2=NS(=O)(=O)CS2)ccc1C(C)=O [Example 58],1.88
25,Cc1cc(OC2=NS(=O)(=O)CS2)cc(C)c1SC#N [Example 60],2.55

row,SMILES,logP
1,CC(=NOCc1ccccc1)c1cccc(OC2=NS(=O)(=O)CS2)c1 [Example 25],3.67
2,O=S1(=O)CSC(Oc2ccc(Br)cc2)=N1 [Example 122],2.52
3,CC(=O)c1cc(OC2=NS(=O)(=O)CS2)cc([N+](=O)[O-])c1 [Example 74],1.95
4,O=S1(=O)CSC(Oc2ccc(C3=Nc4ccccc4SC(c4ccccc4)C3)cc2)=N1 (centres unmarked) [Example 73],4.19
5,COc1cccc(OC2=NS(=O)(=O)CS2)c1OC [Example 118],2.12
6,O=C(c1ccc(Cl)cc1)c1ccc(OC2=NS(=O)(=O)CS2)cc1 [Example 86],3.17
7,O=S1(=O)CSC(Oc2ccc(OC(F)(F)F)cc2)=N1 [Example 124],2.79
8,O=S1(=O)CSC(Oc2ccc(N=Nc3ccccc3)cc2)=N1 [Example 47],3.47
9,CCOC(=O)NN=C(C)c1ccc(OC2=NS(=O)(=O)CS2)cc1 [Example 72],1.86
10,N#CC(C#N)=Cc1cccc(OC2=NS(=O)(=O)CS2)c1 [Example 38],1.59
11,N#CCc1ccccc1OC1=NS(=O)(=O)CS1 [Example 8],1.68
12,O=S1(=O)CSC(Oc2cccc(C3=NOCCO3)c2)=N1 [Example 56],1.86
13,COC(=O)C(=NOCC#N)c1ccccc1OC1=NS(=O)(=O)CS1 [Example 7],1.7
14,COc1cc(Cl)cc(OC2=NS(=O)(=O)CS2)c1 [Example 116],2.61
15,Cc1cc(S(=O)(=O)c2ccccc2)cc(Cl)c1OC1=NS(=O)(=O)CS1 [Example 120],2.83
16,O=S1(=O)CSC(Oc2cccc(CCO)c2)=N1 [Example 90],1.39
17,CC(C)Oc1ccccc1OC1=NS(=O)(=O)CS1 [Example 129],2.7
18,CCCCCC(O)c1cccc(OC2=NS(=O)(=O)CS2)c1 (racemic) [Example 82],2.87
19,CCOC(=O)NN=Cc1cccc(OC2=NS(=O)(=O)CS2)c1 [Example 36],1.79
20,COc1ccc(C(C)=O)c(OC2=NS(=O)(=O)CS2)c1 [Example 75],1.83
21,CCS(=O)(=O)c1ccc(OC2=NS(=O)(=O)CS2)cc1 [Example 59],1.54
22,O=[N+]([O-])c1ccc(/C=C/c2ccc(OC3=NS(=O)(=O)CS3)cc2)cc1 [Example 50],3.3
23,O=C(Cc1ccccc1)c1ccc(OC2=NS(=O)(=O)CS2)cc1 [Example 65],2.76

# Same assay, conditions: Table 2
row,SMILES,chromatographic logP
1,O=C1Cc2cc(OC3=NS(=O)(=O)CS3)ccc2O1 [Example 143],0.48
2,CN1C(=O)Nc2cc(OC3=NS(=O)(=O)CS3)ccc2SC1=O [Example 149],1.55
3,CC1(C)Oc2cccc(OC3=NS(=O)(=O)CS3)c2O1 [Example 150],2.6
4,COC(=O)/C(C#N)=C1/Oc2ccc(OC3=NS(=O)(=O)CS3)cc2S1 [Example 151],2.31
5,Cc1nc2cc(OC3=NS(=O)(=O)CS3)ccc2s1 [Example 148],1.92
6,COC(=O)c1c(-c2ccc(-c3ccccc3)cc2)oc2ccc(OC3=NS(=O)(=O)CS3)cc12 [Example 146],3.43
7,O=S1(=O)CSC(Oc2ccc3[nH]ccc3c2)=N1 [Example 155],1.86
8,O=c1c2ccccc2oc2cc(OC3=NS(=O)(=O)CS3)ccc12 [Example 152],2.52
9,O=c1oc2cc(OC3=NS(=O)(=O)CS3)ccc2cc1-c1ccccc1 [Example 147],2.77
10,O=S1(=O)CSC(Oc2ccc3c(c2)Nc2ccccc2S3(=O)=O)=N1 [Example 154],1.93
11,O=S1(=O)CSC(Oc2ccc3c(c2)CCC3)=N1 [Example 157],2.8
12,CC1(C)Cc2cccc(OC3=NS(=O)(=O)CS3)c2O1 [Example 158],2.66
13,O=S1(=O)CSC(Oc2ccc3c(c2)OCO3)=N1 [Example 142],1.9
14,Cc1c(C(=O)O)c2cc(OC3=NS(=O)(=O)CS3)ccc2n1C [Example 144],2.65

# Same assay, conditions: Table 4, starting materials of formula (IV)
row,SMILES,chromatographic logP
1,CSC1=NS(=O)(=O)C(C)S1 (centres unmarked) [IV-3],1.38
2,CSC1=NS(=O)(=O)C(C(C)C)S1 (centres unmarked) [IV-4],2.8
3,CSC1=NS(=O)(=O)CC(c2ccccc2)S1 (centres unmarked) [IV-6],2.54

# Same assay, conditions: gradient of acetonitrile/0.1% aqueous phosphoric acid; HPLC, gradient method, acetonitrile/0.1% aqueous phosphoric acid; Table 1
row,SMILES,chromatographic logP
1,CO/N=C(/C)c1cccc(OC2=NS(=O)(=O)CS2)c1 [Example 26],2.65
2,CC(C)(CCl)C(=O)Nc1ccc(OC2=NS(=O)(=O)CS2)c(Cl)c1Cl [Example 13],2.98
